Test results published in patent US20240002428A1, “STORAGE STABLE CAGED HAPTENS” (VENTANA MEDICAL SYSTEMS, INC., priority 2021, published 2024).

Assay: Hydrolytic stability study of caged haptens at elevated temperature (reverse phase HPLC)
Assay type: physicochemical
Conditions: 100 mM PBS (pH 7.2), 37° C. oven, after 50 days of storage
Description: To study the hydrolytic stability of caged hapten conjugates having any one of Formulas (IVA), (IVB), or (VA)-(VF) (see FIG. 9) model compounds were subjected to a stability study at elevated temperatures.
Model compounds tested were the NP hapten with two different caging groups along with caged DIG, as set forth below:
The samples of caged NP and caged DIG were stored in 100 mM PBS (pH 7.2) in a 37° C. oven. The buffer and pH were representative of storage conditions for an antibody conjugate. A temperature of 37° C. was chosen to stress the sample and accelerate hydrolytic events. Normal storage conditions or the antibody conjugate were believed to be about 4° C. Aliquots of the samples were removed at regular intervals and tested by reverse phase HPLC on a Waters XBridge column on a Waters Alliance e2695 running Empower 3 (Waters). Each sample HPLC trace was examined for evidence of decaging or other forms of decomposition. […] The caged DIG testing was monitored out to 120 days and <0.5% hydrolysis was still observed at this point.

Row | Structure (SMILES) | hydrolysis (caged hapten hydrolyzed to the native hapten, percentage of the original material)
1 | COc1cc(Cn2nc(C(=O)NCCN)cc2[N+](=O)[O-])cc(OC)c1OP(=O)(O)O [generation 1 caged-NP] | ~15.5%
2 | COc1cc(Cn2nc(C(=O)NCCN)cc2[N+](=O)[O-])cc(OC)c1OCOP(=O)(O)O [generation 2 caged-NP] | ~6%
